Laboratory results reported in PubChem BioAssay AID1259411 (Chemical Carcinogenesis Research Information System (CCRIS), 2018).
Activity calls are given as the source filed them. No rule for the calls is given here.

Tested on: rodent carcinogenicity bioassays, tumor incidence
Assay: CCRIS carcinogenicity studies
Outline: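 Archive of carcinogenicity, mutagenicity, tumor promotion and tumor inhibition results drawn from journals, NCI reports and other sources, expert-reviewed; covers 1985-2011 and is no longer updated.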

Measured: carcinogen call

CC1CN(N=O)CC(C)O1 (configuration not stated)
active: Species: FISH, Strain/Sex: SHASTA RAINBOW TROUT/MALE, FEMALE, Route: ORAL, Dose: 0, 1556 PPM IN DIET FOR 18 MO (STUDY DURATION: 18 MO), Tumor Site: Type of Lesion: LIVER: CARCINOMA, STOMACH: PAPILLOMA active; positive | Species: HAMSTER, Strain/Sex: EUROPEAN/FEMALE, Route: GAVAGE, Dose: 0, 37 MG/KG 1/WK FOR DURATION OF STUDY (STUDY DURATION: LIFETIME), Tumor Site: Type of Lesion: NASAL CAVITY: TUMOR, TRACHEA: TUMOR, LIVER: HEMANGIOENDOTHELIOMA, Tumor Site: Type of Lesion: NASAL CAVITY: TUMOR, TRACHEA: TUMOR, LIVER: HEMANGIOENDOTHELIOMA active; positive | Species: HAMSTER, Strain/Sex: EUROPEAN/FEMALE, Route: GAVAGE, Dose: 0, 112 MG/KG 1/WK FOR DURATION OF STUDY (STUDY DURATION: LIFETIME), Tumor Site: Type of Lesion: NASAL CAVITY: TUMOR, TRACHEA: TUMOR, LUNG: TUMOR, Tumor Site: Type of Lesion: NASAL CAVITY: TUMOR, TRACHEA: TUMOR, LUNG: TUMOR active; positive | Species: HAMSTER, Strain/Sex: EUROPEAN/FEMALE, Route: SUBCUTANEOUS, Dose: 0, 85 MG/KG 1/WK FOR DURATION OF STUDY (STUDY DURATION: LIFETIME), Tumor Site: Type of Lesion: NASAL CAVITY: TUMOR, LARYNX: TUMOR, TRACHEA: TUMOR, LUNG: TUMOR, Tumor Site: Type of Lesion: NASAL CAVITY: TUMOR, LARYNX: TUMOR, TRACHEA: TUMOR, LUNG: TUMOR active; positive | Species: HAMSTER, Strain/Sex: EUROPEAN/MALE, Route: GAVAGE, Dose: 0, 37 MG/KG 1/WK FOR DURATION OF STUDY (STUDY DURATION: LIFETIME), Tumor Site: Type of Lesion: NASAL CAVITY: TUMOR, LIVER: HEMANGIOENDOTHELIOMA active; positive | Species: HAMSTER, Strain/Sex: EUROPEAN/MALE, Route: GAVAGE, Dose: 0, 112 MG/KG 1/WK FOR DURATION OF STUDY (STUDY DURATION: LIFETIME), Tumor Site: Type of Lesion: NASAL CAVITY: TUMOR, LUNG: TUMOR active; positive | Species: HAMSTER, Strain/Sex: EUROPEAN/MALE, Route: SUBCUTANEOUS, Dose: 0, 85 MG/KG 1/WK FOR DURATION OF STUDY (STUDY DURATION: LIFETIME), Tumor Site: Type of Lesion: NASAL CAVITY: TUMOR, LARYNX: TUMOR, TRACHEA: TUMOR, LUNG: TUMOR, Tumor Site: Type of Lesion: NASAL CAVITY: TUMOR, LARYNX: TUMOR, TRACHEA: TUMOR, LUNG: TUMOR active; positive | Species: HAMSTER, Strain/Sex: SYRIAN/MALE,FEMALE, Route: GAVAGE, Dose: 9-74 MG/KG 1/WK FOR LIFE, Tumor Site: Type of Lesion: PANCREAS, TRACHEA, LUNG, LIVER, NASAL CAVITY, FORESTOMACH, GALL BLADDER, LARYNX, Tumor Site: Type of Lesion: PANCREAS, TRACHEA, LUNG, LIVER, NASAL CAVITY, FORESTOMACH, GALL BLADDER, LARYNX active; positive | Species: HAMSTER, Strain/Sex: SYRIAN/MALE,FEMALE, Route: SUBCUTANEOUS, Dose: 8, 16, 32 MG/KG 1/WK FOR LIFE, Dose: 8, 16, 32 MG/KG 1/WK FOR LIFE, Tumor Site: Type of Lesion: NASAL CAVITY, LARYNX, TRACHEA, LUNG, FORESTOMACH, PANCREAS, VAGINA, Tumor Site: Type of Lesion: NASAL CAVITY, LARYNX, TRACHEA, LUNG, FORESTOMACH, PANCREAS, VAGINA active; positive | Species: RAT, Strain/Sex: F344/FEMALE, Route: INTRAVESICULAR, Dose: 0, 6 MG IN 0.2 ML ETHANOL: DEIONIZED WATER (1:3) 2/WK FOR 18 WK (TOTAL DOSE 1.5 MMOL) (STUDY DURATION: LIFESPAN), Tumor Site: Type of Lesion: ESOPHAGUS: TUMOR active; positive | Species: RAT, Strain/Sex: F344/FEMALE, Route: ORAL, Dose: 20 MG/L IN DRINKING WATER FOR 30 WK, Tumor Site: Type of Lesion: ESOPHAGUS: PAPILLOMA, CARCINOMA, TONGUE: PAPILLOMA, CARCINOMA active; positive | Species: RAT, Strain/Sex: F344/FEMALE, Route: ORAL, Dose: 50 MG/L IN DRINKING WATER FOR 22 WK, Tumor Site: Type of Lesion: ESOPHAGUS: PAPILLOMA, CARCINOMA active; positive | Species: RAT, Strain/Sex: SPRAGUE-DAWLEY/MALE,FEMALE, Route: SUBCUTANEOUS, Dose: 0, 1/100, 1/10 OF LD50 1/WK FOR LIFE (STUDY DURATION: LIFETIME), Dose: 0, 1/100, 1/10 OF LD50 1/WK FOR LIFE (STUDY DURATION: LIFETIME), Tumor Site: Type of Lesion: ESOPHAGUS: CARCINOMA active; positive | Species: RAT, Strain/Sex: SPRAGUE-DAWLEY/MALE,FEMALE, Route: SUBCUTANEOUS, Dose: 0, 1/100, 1/10 OF LD50 1/WK FOR LIFE TO RATS WITH ESOPHAGOJEJUNOSTOMY (STUDY DURATION: LIFETIME), Dose: 0, 1/100, 1/10 OF LD50 1/WK FOR LIFE TO RATS WITH ESOPHAGOJEJUNOSTOMY (STUDY DURATION: LIFETIME), Tumor Site: Type of Lesion: ESOPHAGUS: CARCINOMA active; positive | Species: RAT, Strain/Sex: SPRAGUE-DAWLEY/MALE, Route: ORAL, Dose: 50 MG/L IN DRINKING WATER (20 ML/D 5 D/WK) FOR 30 WK, Tumor Site: Type of Lesion: ESOPHAGUS: PAPILLOMA, SQUAMOUS CELL CARCINOMA, NASAL TURBINATES: ADENOCARCINOMA active; positive

C=CCN(N)CC=C
active: Species: MOUSE, Strain/Sex: SWISS/FEMALE, Route: ORAL, Dose: 0.03125% IN DRINKING WATER FOR LIFE, Tumor Site: Type of Lesion: LUNG: ADENOMA, ADENOCARCINOMA active; positive | Species: MOUSE, Strain/Sex: SWISS/MALE, Route: ORAL, Dose: 0.03125% IN DRINKING WATER FOR LIFE, Tumor Site: Type of Lesion: LUNG: ADENOMA, ADENOCARCINOMA, FORESTOMACH: SQUAMOUS CELL PAPILLOMA, CARCINOMA active; positive

CCCCCCCCCCN(C)N=O
active: Species: RAT, Strain/Sex: F344/MALE, Route: GAVAGE, Dose: 0, 108 MG/ML IN CORN OIL 2/WK FOR 30 WK, STUDY DURATION: 110 WK, Dose: 0, 108 MG/ML IN CORN OIL 2/WK FOR 30 WK, STUDY DURATION: 110 WK, Tumor Site: Type of Lesion: LUNG: ADENOCARCINOMA, BLADDER active; positive

CCCN(CCC)S(=O)(=O)c1ccc(C(=O)O)cc1
active: Species: MOUSE, Strain/Sex: B6C3F1/FEMALE, Route: GAVAGE, Dose: 0, 100, 400 MG/KG IN CORN OIL 5 D/WK FOR 103 WK (STUDY DURATION: 105 WK), Dose: 0, 100, 400 MG/KG IN CORN OIL 5 D/WK FOR 103 WK (STUDY DURATION: 105 WK), Tumor Site: Type of Lesion: LIVER: HEPATOCELLULAR ADENOMA OR CARCINOMA active; positive
inactive: Species: MOUSE, Strain/Sex: B6C3F1/MALE, Route: GAVAGE, Dose: 0, 100, 400 MG/KG IN CORN OIL 5 D/WK FOR 103 WK (STUDY DURATION: 105 WK), Dose: 0, 100, 400 MG/KG IN CORN OIL 5 D/WK FOR 103 WK (STUDY DURATION: 105 WK) inactive; negative | Species: RAT, Strain/Sex: F344/FEMALE, Route: GAVAGE, Dose: 0, 100, 400 MG/KG IN CORN OIL 5 D/WK FOR 103 WK (STUDY DURATION: 104 WK), Dose: 0, 100, 400 MG/KG IN CORN OIL 5 D/WK FOR 103 WK (STUDY DURATION: 104 WK) inactive; negative | Species: RAT, Strain/Sex: F344/MALE, Route: GAVAGE, Dose: 0, 100, 400 MG/KG IN CORN OIL 5 D/WK FOR 103 WK (STUDY DURATION: 104 WK), Dose: 0, 100, 400 MG/KG IN CORN OIL 5 D/WK FOR 103 WK (STUDY DURATION: 104 WK) inactive; negative
